Data on 14 compounds can be found in PMC11818416, “Discovery of TRPV4-Targeting Small Molecules with Anti-Influenza Effects Through Machine Learning and Experimental Validation” (International Journal of Molecular Sciences, 2025).

Structures can show the parent of a compound that is named as a salt.

Data set [1] can be described thus: CCK-8 cytotoxicity test on MDCK cells. To be noted: dog.
Description: (§1) MDCK cells were inoculated in 96-well plates at 37 °C and 5% carbon dioxide for 12 h. The cell supernatant was discarded when the cell density reached 60–70%, and then different concentrations of drugs (0.1, 1, 10, 100 μM) were inoculated in the cell plates, moreover 3 repeat holes were set for each concentration gradient. After 48 h, cell viability was measured using cell counting kit-8 (Beyotime, C0039, CCK-8) depending on factory instructions. The absorbance at 450 nm for each pore was measured using an enzyme-linked immunosorbent plate reader, and half inhibitory concentration (CC50) value of cell viability were calculated by a nonlinear regression curve fitting analysis (Prism 8) of cell viability to the log10 conversion concentration value.
For data set [2], the system named is H1N1-UI182 in 293T cells. In kind it is cell-based, human.
The nature of data set [3]: in vitro. To be noted: dog.
Description: as §1
Data set [4] relates to NF-κB signaling pathway and inflammatory cytokines. Description: Inflammatory cytokine expression after H1N1-UI182 infection by WB and RT-qPCR. To be noted: after H1N1-UI182 infection (Figure 6A-C). It is filed as in vivo, mouse.
For data set [5], the system named is H1N1-UI182. Description: Mice infected with lethal H1N1-UI182 virus: body weight, survival, lung index, lung viral titer, pathology, viral proteins. In kind it is in vivo, BALB/c mice. To be noted: for viral titers in the lung: Supplementary Figures S1C and S2C, comparable to the positive drugs; for survival rate of infected mice: 15-drug round (Figure 4C,D); for expression levels of viral proteins (NP, HA, M1) in lungs, WB: 15-drug round (Figure 4K,L); for rate of weight loss in virus-infected mice: 15-drug round, monitored 14 days (Figure 4A,B); for lung injury (pathology): compared to other treatment groups and virus group, glecaprevir 30 mg/kg, everolimus 5 mg/kg (Figures S1, S2); for protection rate (survival of influenza-infected mice): H1N1-UI182 5 × LD50, BALB/c mice; for rate of weight loss at different concentrations / survival at different concentrations / dose dependence of the inhibitory effect on the virus (lung index, pulmonary viral load, pathological injury): oral.

Data set [6] has as its system MDCK cells.
Description: as §1
The mark [7] stands for this setting: glecaprevir 10, 20, 40 mg/kg/day, everolimus 1, 5, 25 mg/kg/day.
The mark [8] stands for this setting: glecaprevir 10, 20, 40 mg/kg/day, everolimus 1, 5, 25 mg/kg/day, 5 dpi.

`CNCC(=O)OCc1cccnc1N(C)C(=O)OC(C)[n+]1cnn(C[C@](O)(c2cc(F)ccc2F)[C@@H](C)c2nc(-c3ccc(C#N)cc3)cs2)c1` (stereo partly drawn) [Isavuconazonium] returned a CC50 at 48 h in data set [1] (MDCK cells) above 100 µM.
Same read-out and setting: the result for `NC[C@@H]1O[C@H](O[C@H]2[C@@H](O)[C@H](O[C@@H]3[C@@H](O)[C@H](N)C[C@H](N)[C@H]3O[C@H]3O[C@H](CO)[C@@H](O)[C@H](O)[C@H]3N)O[C@@H]2CO)[C@H](N)[C@@H](O)[C@@H]1O` [Paromomycin, Paromomycin sulfate] reads above 100 µM; that for `CCCCC(=O)OCC(=O)[C@]1(O)Cc2c(O)c3c(c(O)c2[C@@H](O[C@H]2C[C@H](NC(=O)C(F)(F)F)[C@H](O)[C@H](C)O2)C1)C(=O)c1c(OC)cccc1C3=O` [Valrubicin], below 50 µM.
With `CO[C@H]1C[C@@H]2CC[C@@H](C)[C@@](O)(O2)C(=O)C(=O)N2CCCC[C@H]2C(=O)O[C@H]([C@H](C)C[C@@H]2CC[C@@H](OCCO)[C@H](OC)C2)CC(=O)[C@H](C)/C=C(\C)[C@@H](O)[C@@H](OC)C(=O)[C@H](C)C[C@H](C)/C=C/C=C/C=C/1C` [Everolimus], in data set [2], the “expression level of NP protein in normal 293T cells (WB)” value is listed as “higher in normal cells” and the “expression of NP protein in TRPV4−/− 293T cells (WB)” value was “significantly decreased”. Moreover, the CC50 at 48 h in data set [3] was determined as 78.2 µM. Further, the “expression levels of phosphorylated NF-κB, IL-6, IL-10, IFN-β, TNF-α (WB)” value in data set [4] is listed as “decreased”. Also, in data set [5] (5 dpi), the “viral titers in the lung” value is recorded as “significantly reduced viral titers”. Besides, in data set [5], the “survival rate of infected mice” value is listed as “significantly improved the survival rate”; the “expression levels of viral proteins (NP, HA, M1) in lungs, WB” value is “attenuated obviously”; the “rate of weight loss in virus-infected mice” value is on record as “significantly slowed the rate of weight loss”; the “protection rate (survival of influenza-infected mice)” value was found to be 100%. The “viral load in the lungs” value in data set [5] (5 days after infection, compared to the viral group (Figure 4G-J)) was “evidently lower”. Moreover, in data set [5] (5 days after infection), the “lung injury (pathology)” value was “noticeable signs of lung improvement”. Besides, the “pulmonary viral load at different concentrations” value in data set [5] (everolimus 1, 5, 25 mg/kg/day, 5 dpi (Figure 5H)) is on record as “decreased notably with the increase of drug concentration”. Further, in data set [5] (setting [7]), the “rate of weight loss at different concentrations” value was “observably retarded the rate of weight loss” and the “survival at different concentrations” value is “improved survival in a concentration-dependent manner”. Further, in data set [5] (setting [8]), the “dose dependence of the inhibitory effect on the virus (lung index, pulmonary viral load, pathological injury)” value is reported as “meaningfully dose-dependent”.
On to `COC(=O)N[C@H](C(=O)N1CCC[C@H]1C(=O)Nc1ccc([C@@H]2CC[C@@H](c3ccc(NC(=O)[C@@H]4CCCN4C(=O)[C@@H](NC(=O)OC)C(C)C)cc3)N2c2ccc(C(C)(C)C)cc2)cc1)C(C)C` [Ombitasvir], for which, in data set [1], the CC50 at 48 h is above 100 µM.
With `CCC[C@H](NC(=O)[C@@H]1[C@H]2CCC[C@H]2CN1C(=O)[C@@H](NC(=O)[C@@H](NC(=O)c1cnccn1)C1CCCCC1)C(C)(C)C)C(=O)C(=O)NC1CC1` [Telaprevir], the CC50 at 48 h in data set [3] is above 100 µM.
Take `NC[C@H]1O[C@H](O[C@H]2[C@H](O)[C@@H](O[C@H]3O[C@H](CO)[C@@H](O)[C@H](N)[C@H]3O)[C@H](N)C[C@@H]2N)[C@H](N)C[C@@H]1O` [Tobramycin]: the CC50 at 48 h in data set [1] (MDCK cells) is above 100 µM.
Take `CSCCNc1nc(SCCC(F)(F)F)nc2c1ncn2[C@@H]1O[C@H](COP(=O)(O)OP(=O)(O)C(Cl)(Cl)P(=O)(O)O)[C@@H](O)[C@H]1O` [Cangrelor]: the CC50 at 48 h in data set [3] is above 100 µM. For the same compound, the “rate of weight loss in virus-infected mice” value in data set [5] is reported as “significantly slowed the rate of weight loss”.
`C[C@@H]1O[C@@H](OC[C@H]2O[C@@H](Oc3c(-c4ccc(OCCO)c(OCCO)c4)oc4cc(OCCO)cc(O)c4c3=O)[C@H](O)[C@@H](O)[C@@H]2O)[C@H](O)[C@H](O)[C@H]1O` [Troxerutin] displayed a CC50 at 48 h in data set [1] (MDCK cells) below 50 µM.
Regarding `Cc1cc2nc3c(=O)[nH]c(=O)nc-3n(C[C@H](O)[C@H](O)[C@H](O)COP(=O)(O)OP(=O)(O)OC[C@H]3O[C@@H](n4cnc5c(N)ncnc54)[C@H](O)[C@@H]3O)c2cc1C` [FAD], in data set [6], the CC50 is below 50 µM.
Compound `CC(C)(C)[C@@H]1NC(=O)O[C@@H]2CCC[C@H]2OC/C=C/C(F)(F)c2nc3ccccc3nc2O[C@@H]2C[C@@H](C(=O)N[C@]3(C(=O)NS(=O)(=O)C4(C)CC4)C[C@H]3C(F)F)N(C2)C1=O` [Glecaprevir] displayed a CC50 at 48 h in data set [3] of 77.3 µM. Further, the “expression levels of phosphorylated NF-κB, IL-6, IL-10, IFN-β, TNF-α (WB)” value in data set [4] is recorded as “decreased”. The “viral titers in the lung” value in data set [5] (5 dpi) is “significantly reduced viral titers”. For the same compound, in data set [5], the “survival rate of infected mice” value is reported as “significantly improved the survival rate”; the “expression levels of viral proteins (NP, HA, M1) in lungs, WB” value is “attenuated obviously”; the “rate of weight loss in virus-infected mice” value is reported as “significantly slowed the rate of weight loss”; the “protection rate (survival of influenza-infected mice)” value is listed as 80%. For the same compound, the “lung injury (pathology)” value in data set [5] (5 days after infection) was “noticeable signs of lung improvement”. Further, the “expression of viral protein in mouse lungs at higher doses, WB” value in data set [5] (glecaprevir 10, 20, 40 mg/kg/day (Figure 5K)) is “did not effectively inhibit the expression of viral protein at higher doses”. In addition, the “lung lesions at higher concentrations” value in data set [5] (glecaprevir 10, 20, 40 mg/kg/day, 5 dpi, H&E (Figure 5I)) is on record as “higher concentrations did not alter the lung lesions”. In data set [5] (setting [7]), the “rate of weight loss at different concentrations” value is on record as “observably retarded the rate of weight loss” and the “survival at different concentrations” value is reported as “improved survival in a concentration-dependent manner”. Also, the “dose dependence of the inhibitory effect on the virus (lung index, pulmonary viral load, pathological injury)” value in data set [5] (setting [8]) is reported as “did not display concentration-dependent characteristics”.
In data set [1] (MDCK cells), `C[C@H]1O[C@H](O[C@H]2[C@H](O)[C@@H](O)[C@@H](O[C@H]3[C@H](O)[C@@H](O)C(O)O[C@@H]3CO)O[C@@H]2CO)[C@H](O)[C@@H](O)[C@@H]1N[C@H]1C=C(CO)[C@@H](O)[C@H](O)[C@H]1O` (stereo partly drawn) [Acarbose] displayed a CC50 at 48 h above 100 µM. Further, the “rate of weight loss in virus-infected mice” value in data set [5] is reported as “significantly slowed the rate of weight loss”.
In turn, `CC(/C=C/C=C(\C)C(=O)O[C@@H]1O[C@H](CO[C@@H]2O[C@H](CO)[C@@H](O)[C@H](O)[C@H]2O)[C@@H](O)[C@H](O)[C@H]1O)=C\C=C\C=C(C)\C=C\C=C(/C)C(=O)O[C@@H]1O[C@H](CO[C@@H]2O[C@H](CO)[C@@H](O)[C@H](O)[C@H]2O)[C@@H](O)[C@H](O)[C@H]1O` [Crocin] had a CC50 at 48 h in data set [1] (MDCK cells) above 100 µM.
The same measure, in the same setting: the value for `CN[C@@H]1[C@@H](O)[C@@H](O[C@@H]2[C@@H](O)[C@H](O[C@H]3O[C@H](CN)[C@@H](O)[C@H](O)[C@H]3O)[C@@H](N)C[C@H]2NC(=O)[C@@H](O)CN)OC[C@]1(C)O` [Isepamicin] was above 100 µM.
